Measured values published in paper PMC9103715, “New Panx-1 Blockers: Synthesis, Biological Evaluation and Molecular Dynamic Studies” (International Journal of Molecular Sciences, 2022).

Assays:
[1] = molecular target: T1, Panx-1 channels (Mus musculus, UniProt Q9JIP4); test: Voltage clamp on Xenopus laevis oocytes expressing Panx-1 channels; format: cell-based; settings: for inhibition at 50 µM / I (%) inhibition of Panx-1 currents: voltage clamp, Xenopus laevis oocytes expressing Panx-1 channels, 50 µM; for inhibition at 50 µM: read-out: I (%) inhibition of Panx-1 currents; for classification as active or inactive Panx-1 blocker: grouping chosen for the virtual screening
T1 construct: expressed in transfected cells; host or cells: Xenopus laevis oocytes injected with in vitro-transcribed mRNA
T1 sequence (Q9JIP4 whole entry): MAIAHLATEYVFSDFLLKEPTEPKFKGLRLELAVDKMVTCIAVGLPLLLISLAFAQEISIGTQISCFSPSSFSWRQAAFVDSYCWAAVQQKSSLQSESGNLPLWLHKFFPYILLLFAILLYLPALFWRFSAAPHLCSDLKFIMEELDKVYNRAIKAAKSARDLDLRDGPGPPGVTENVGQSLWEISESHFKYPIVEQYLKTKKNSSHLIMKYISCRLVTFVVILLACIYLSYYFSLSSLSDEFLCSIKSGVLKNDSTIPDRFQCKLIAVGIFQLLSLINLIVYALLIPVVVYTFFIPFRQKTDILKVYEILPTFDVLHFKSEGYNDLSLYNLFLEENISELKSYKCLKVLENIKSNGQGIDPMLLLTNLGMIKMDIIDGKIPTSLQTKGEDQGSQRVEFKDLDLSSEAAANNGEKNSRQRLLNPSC
Method: All new products were screened as Panx-1 blockers at the dose of 50 µM using the Voltage Clamp technique on Xenopus Laevis oocytes expressing Panx-1 channels. The membrane potential of the cells was held at -60 mV and voltage steps to +60 mV were applied to induce membrane currents. To verify that Panx-1 channels carried the currents, in each experiment 100 µM carbenoxolone (CBX) was applied. At this concentration, CBX is known to yield 100% inhibition of Panx-1 activity. If present, leak currents resistant to CBX were subtracted from the total current to assess % inhibition mediated by the tested compounds. Table 1 and Table 2 report the electrophysiological results of naphthalene-2-sulphonic acid derivatives bearing at position 5 an amino- (3a–e, 4 and 5) or amide group (7a–g, 8 and 9) and of compound 13.
Oocytes of Xenopus laevis are prepared as previously described in [39] where the oocytes are isolated from surgically removed ovary segments incubated in an Oocyte Ringe solution Ca2-free (OR2: in mM: 82.5 NaCl, 2.5 KCl, 1.0 MgCl2, […], 1.0 Na2HPO4 e 5.0 HEPES, pH 7.5) with 2 mg/mL of collagenase and antibiotics (10,000 U/mL penicillin and 10 mg/mL of streptomycin) stirred at room temperature for 3 h. After being washed with OR2, oocytes free of follicular cells and that have a uniform pigmentation are chosen and stored in OR2 for 18 °C.
Mouse pannexin1, in pCS2, was linearised with NotI. In vitro transcription was performed with the polymerase SP6, using the Message Machine kit (Ambion). mRNA was quantified by absorbance (260 nm), and the proportion of full-length transcripts was checked by agarose gel electrophoresis. In vitro-transcribed mRNA (~20 nL) was injected into Xenopus laevis oocytes.
Whole-cell membrane currents of oocytes were measured using a two-electrode voltage clamp (Gene Clamp 500B, Axon Instruments/Molecular Devices Sunnyvale, Union City, CA, USA). Glass pipettes were pulled using a P-97 Flaming/Brown type puller (Sutter, Novato, CA, USA). The recording chamber was perfused continuously with frog Ringer (OR) solution (in mM: 82.5 NaCl, 2.5 KCl, 1 CaCl2, 1 MgCl2, 1 Na2HPO4, and 5 HEPES, pH 7.5).
Membrane conductance was determined using voltage pulses, and the pulse-induced current amplitudes were divided by the amplitudes of the voltage steps. For calculation of % inhibition, leak currents were subtracted. Typically, leak currents after the interventions were smaller than at the beginning of the experiment and this smaller value was used for the subtraction to avoid overestimation of the inhibitory effect. For an independent measure of the leak current, oocytes at the end of the experiment were exposed to 100 µM carbenoxolone, which is known to close Panx1 channels 100%. Oocytes expressing Panx1 were held at −60 mV, and pulses to +60 mV were applied to transiently open the channels by means of the voltage gate. Pulses 5 s in duration were applied at 0.1 Hz for current and conductance measurements.

Row | Compound | melting point | inhibition at 50 µM [1] [%] | other results
1 | O=S(=O)(O)c1ccc2c(NCc3ccccc3)cccc2c1 (hydrate or solvate) [Compound 3a, 5-(Benzylamino)naphthalene-2-Sulfonic Acid] | > 300 °C |  | 
2 | O=S(=O)(O)c1ccc2c(NCCc3ccccc3)cccc2c1 (hydrate or solvate) [Compound 3b, 5-(Phenethylamino)naphthalene-2-sulfonic acid] | > 300 °C |  | 
3 | O=S(=O)(O)c1ccc2c(NCCCc3ccccc3)cccc2c1 (hydrate or solvate) [Compound 3c, 5-[(3-Phenylpropyl)amino]naphthalene-2-sulfonic acid] | > 300 °C |  | 
4 | O=S(=O)(O)c1ccc2c(NCCCCc3ccccc3)cccc2c1 (hydrate or solvate) [Compound 3d, 5-[(4-Phenylbutyl)amino]naphthalene-2-sulfonic acid] | > 300 °C |  | 
5 | O=S(=O)(O)c1ccc2c(NCCCCCc3ccccc3)cccc2c1 (hydrate or solvate) [Compound 3e, 5-[(5-Phenylpentyl)amino]naphthalene-2-sulfonic acid] | > 300 °C |  | 
6 | O=C(O)c1ccc(CNc2cccc3cc(S(=O)(=O)O)ccc23)cc1 (hydrate or solvate) [Compound 4, 4-[(6-Sulfonaphthalen-1-yl)aminomethyl]benzoic Acid] | > 300 °C |  | 
7 | CN(Cc1ccccc1)c1cccc2cc(S(=O)(=O)O)ccc12 (hydrate or solvate) [Compound 5, 5-(Benzyl(methyl)amino)naphthalene-2-sulfonic Acid] | > 300 °C |  | 
8 | CCN(CC)S(=O)(=O)c1ccc(C(=O)Nc2cccc3cc(S(=O)(=O)O)ccc23)cc1 (hydrate or solvate) [Compound 7a, 5-[4-(N,N-diethylsulfamoyl)benzamido]naphthalene-2-sulfonic acid] | > 300 °C |  | 
9 | CCCN(CCC)S(=O)(=O)c1ccc(C(=O)Nc2cccc3cc(S(=O)(=O)O)ccc23)cc1 (hydrate or solvate) [Compound 7b, 5-[4-(N,N-dipropylsulfamoyl)benzamido]naphthalene-2-sulfonic acid] | > 300 °C |  | 
10 | CCCCN(CCCC)S(=O)(=O)c1ccc(C(=O)Nc2cccc3cc(S(=O)(=O)O)ccc23)cc1 (hydrate or solvate) [Compound 7c, 5-[4-(N,N-dibutylsulfamoyl)benzamido]naphthalene-2-sulfonic acid] | > 300 °C |  | 
11 | O=C(Nc1cccc2cc(S(=O)(=O)O)ccc12)c1ccc(S(=O)(=O)N(Cc2ccccc2)Cc2ccccc2)cc1 (hydrate or solvate) [Compound 7d, 5-[4-(N,N-dibenzylsulfamoyl)benzamido]naphthalene-2-sulfonic acid] | > 300 °C |  | 
12 | O=C(Nc1cccc2cc(S(=O)(=O)O)ccc12)c1ccc(S(=O)(=O)N(CCc2ccccc2)CCc2ccccc2)cc1 (hydrate or solvate) [Compound 7e, 5-[4-(N,N-diphenethylsulfamoyl)benzamido]naphthalene-2-sulfonic acid] | > 300 °C |  | 
13 | O=C(Nc1cccc2cc(S(=O)(=O)O)ccc12)c1ccc(S(=O)(=O)N(CCc2ccccc2)Cc2ccccc2)cc1 (hydrate or solvate) [Compound 7f, 5-[4-(N-benzyl-N-phenethylsulfamoyl)benzamido]naphthalene-2-sulfonic acid] | > 300 °C |  | 
14 | O=C(Nc1cccc2cc(S(=O)(=O)O)ccc12)c1ccc(S(=O)(=O)NCCc2ccccc2)cc1 (hydrate or solvate) [Compound 7g, 5-[4-(N-phenethylsulfamoyl)benzamido]naphthalene-2-sulfonic acid] | > 300 °C |  | 
15 | O=C(O)c1ccc(CN(Cc2ccc(C(=O)O)cc2)S(=O)(=O)c2ccc(C(=O)O)cc2)cc1 (hydrate or solvate) [Compound 13, 4,4′-{{[(4-Carboxyphenyl)sulfonyl]azanediyl}bis(methylene)}dibenzoic acid] | > 300 °C |  | 
16 | O=S(=O)(O)c1ccc2c(NCc3ccccc3)cccc2c1 [Compound 3a, 5-(Benzylamino)naphthalene-2-Sulfonic Acid] |  | 31.7 ± 0.9 | classification as active or inactive Panx-1 blocker [1]: inactive

Row | Compound | melting point | inhibition at 50 µM [1] [%] | other results
17 | O=S(=O)(O)c1ccc2c(NCCc3ccccc3)cccc2c1 [Compound 3b, 5-(Phenethylamino)naphthalene-2-sulfonic acid] |  | 24.3 ± 3.5 | 
18 | O=S(=O)(O)c1ccc2c(NCCCCc3ccccc3)cccc2c1 [Compound 3d, 5-[(4-Phenylbutyl)amino]naphthalene-2-sulfonic acid] |  | 47 ± 5.7 | 
19 | O=S(=O)(O)c1ccc2c(NCCCCCc3ccccc3)cccc2c1 [Compound 3e, 5-[(5-Phenylpentyl)amino]naphthalene-2-sulfonic acid] |  | 62 ± 6 | 
20 | COC(=O)c1ccc(CNc2cccc3cc(S(=O)(=O)O)ccc23)cc1 [Compound 3f, 5-[(4-(Methoxycarbonyl)benzyl)amino]naphthalene-2-sulfonic acid] | > 300 °C |  | 
21 | CN(Cc1ccccc1)c1cccc2cc(S(=O)(=O)O)ccc12 [Compound 5, 5-(Benzyl(methyl)amino)naphthalene-2-sulfonic Acid] |  | 27.3 ± 2.6 | 
22 | CCN(CC)S(=O)(=O)c1ccc(C(=O)Nc2cccc3cc(S(=O)(=O)O)ccc23)cc1 [Compound 7a, 5-[4-(N,N-diethylsulfamoyl)benzamido]naphthalene-2-sulfonic acid] |  | 54 ± 2.3 | 
23 | CCCN(CCC)S(=O)(=O)c1ccc(C(=O)Nc2cccc3cc(S(=O)(=O)O)ccc23)cc1 [Compound 7b, 5-[4-(N,N-dipropylsulfamoyl)benzamido]naphthalene-2-sulfonic acid] |  | 34 | I (%) inhibition of Panx-1 currents [1]: 34.3 ± 5.2%
24 | O=C(Nc1cccc2cc(S(=O)(=O)O)ccc12)c1ccc(S(=O)(=O)N(CCc2ccccc2)CCc2ccccc2)cc1 [Compound 7e, 5-[4-(N,N-diphenethylsulfamoyl)benzamido]naphthalene-2-sulfonic acid] |  | 58.3 ± 7.5 | 
25 | O=C(Nc1cccc2cc(S(=O)(=O)O)ccc12)c1ccc(S(=O)(=O)N(CCc2ccccc2)Cc2ccccc2)cc1 [Compound 7f, 5-[4-(N-benzyl-N-phenethylsulfamoyl)benzamido]naphthalene-2-sulfonic acid] |  | 61.3 ± 4.3 | 
26 | O=C(Nc1cccc2cc(S(=O)(=O)O)ccc12)c1ccc(S(=O)(=O)NCCc2ccccc2)cc1 [Compound 7g, 5-[4-(N-phenethylsulfamoyl)benzamido]naphthalene-2-sulfonic acid] |  | 47.3 ± 6.5 | classification as active or inactive Panx-1 blocker [1]: inactive
27 | O=C(Nc1cccc2cc(S(=O)(=O)O)ccc12)c1ccccc1 [Compound 8, 5-Benzamidonaphthalene-2-sulfonic Acid] |  | 15 | I (%) inhibition of Panx-1 currents [1]: 15.3 ± 4.9%; classification as active or inactive Panx-1 blocker [1]: inactive
28 | CCCCN(CCCC)S(=O)(=O)c1ccc(C(=O)Nc2cccc3cc(S(=O)(=O)[O-])ccc23)cc1.[Na+] [Compound 9, Sodium 5-[4-(N,N-dibutylsulfamoyl)benzamido]naphthalene-2-sulfonate] |  |  | I (%) inhibition of Panx-1 currents [1]: 65.3 ± 3.9%
29 | Nc1c(C(=O)O)cnn1-c1ccc(S(N)(=O)=O)cc1 [Compound 17, 5-Amino-1-(4-sulfamoylphenyl)-1H-pyrazole-4-carboxylic acid] | 210 to 211 °C | 0 | 
30 | CCNS(=O)(=O)c1ccc(-n2ncc(C(=O)O)c2N)cc1 [Compound 18a, 5-Amino-1-(4-(N-ethylsulfamoyl)phenyl)-1H-pyrazole-4-carboxylic acid] | 208 to 210 °C (dec.) | 0 | 
31 | CCCNS(=O)(=O)c1ccc(-n2ncc(C(=O)O)c2N)cc1 [Compound 18b, 5-Amino-1-(4-(N-propylsulfamoyl)phenyl)-1H-pyrazole-4-carboxylic acid] | 215 to 218 °C | 4 ± 2.3 | 
32 | CCCCNS(=O)(=O)c1ccc(-n2ncc(C(=O)O)c2N)cc1 [Compound 18c, 5-Amino-1-(4-(N-butylsulfamoyl)phenyl)-1H-pyrazole-4-carboxylic acid] | > 300 °C | 10.3 ± 4.9 | 
